What was measured:
[1] = Drug uptake in iv dosed Wistar rat assessed as standardized uptake value by PET imaging analysis; assay type: ADME, organism-based; conditions: in vivo
[2] = Drug uptake in iv dosed Wistar rat brain assessed as standardized uptake value after 120 mins by PET imaging analysis; assay type: ADME, organism-based; conditions: in vivo, 2 h
[3] = Drug uptake in iv dosed monkey brain assessed as standardized uptake value after 90 mins by PET imaging analysis; assay type: ADME, organism-based, Macaca mulatta; conditions: rhesus monkey, in vivo, 1.5 h
[4] = Drug metabolism in iv dosed Wistar rat blood assessed as metabolite formation after 30 mins RP-HPLC analysis; assay type: ADME, organism-based; conditions: in vivo, 0.5 h
[5] = Drug uptake in iv dosed Wistar rat brain after 3 mins; assay type: ADME, organism-based; conditions: in vivo, 0.05 h
[6] = Drug metabolism in iv dosed Wistar rat brain assessed as metabolite formation after 30 to 90 mins RP-HPLC analysis; assay type: ADME, organism-based; conditions: in vivo, time 30-90 min
[7] = Drug uptake in iv dosed mouse brain assessed as standardized uptake value by PET imaging analysis; assay type: ADME, organism-based; conditions: in vivo
[8] = Drug uptake in iv dosed mouse liver assessed as standardized uptake value at 5 mins by PET imaging analysis; assay type: ADME, organism-based; conditions: in vivo
[9] = Drug uptake in iv dosed mouse liver assessed as standardized uptake value at 60 mins by PET imaging analysis; assay type: ADME, organism-based; conditions: in vivo, 1 h

SMILES	SUV [1]	SUV [2]	SUV [3]	Drug metabolism [4]	Drug uptake [5]	Drug metabolism [6]	SUV [7]	SUV [8]	SUV [9]
CC(C)=CCC/C(C)=C/CC/C(C)=C/C=C/C([11CH3])=C/C(=O)OCc1ccccc1	0.6	–	–	–	–	–	–	–	–
CC(C)=CCC/C(C)=C/CC/C(C)=C/C=C/C([11CH3])=C/C(=O)O	–	1.4	> 3	Metabolite_Detected	Active	Metabolite_Detected	0.8	6.7	4.3

Reference: ChEMBL document CHEMBL5252604, “11C-Labeling of acyclic retinoid peretinoin by rapid C-[11C]methylation to disclose novel brain permeability and central nervous system activities hidden in antitumor agent” (Bioorg Med Chem Lett, 2023)
